Assay results taken from PubChem BioAssay (NCI).
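A five-concentration, 48-hour dose response in 96-well plates underlies each endpoint, interpolated linearly between surrounding concentrations. The concentration for 50% growth inhibition is given as GI50. Definition used: TGI = concentration required for complete inhibition of growth.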

Key:
Assay in all cases: inhibition of tumour cell growth, NCI panel, 48 h
786-0 renal = tested on: 786-0 renal
A498 renal = tested on: A498 renal
A549 NSCLC = tested on: A549 NSCLC
ACHN renal = tested on: ACHN renal
BT-549 breast = tested on: BT-549 breast
CAKI-1 renal = tested on: CAKI-1 renal
COLO 205 colon = tested on: COLO 205 colon
DU-145 prostate = tested on: DU-145 prostate
EKVX NSCLC = tested on: EKVX NSCLC
HCC-2998 colon = tested on: HCC-2998 colon
HCT-116 colon = tested on: HCT-116 colon
HCT-15 colon = tested on: HCT-15 colon
HL-60(TB) leukemia = tested on: HL-60(TB) leukemia
HOP-62 NSCLC = tested on: HOP-62 NSCLC
HOP-92 NSCLC = tested on: HOP-92 NSCLC
HS 578T breast = tested on: HS 578T breast
HT29 colon = tested on: HT29 colon
IGROV1 ovarian = tested on: IGROV1 ovarian
KM12 colon = tested on: KM12 colon
LOX IMVI melanoma = tested on: LOX IMVI melanoma
M14 melanoma = tested on: M14 melanoma
MALME-3M melanoma = tested on: MALME-3M melanoma
MCF7 breast = tested on: MCF7 breast
MDA-MB-231 breast = tested on: MDA-MB-231 breast
MDA-MB-435 = tested on: MDA-MB-435
MOLT-4 leukemia = tested on: MOLT-4 leukemia
NCI-H226 lung = tested on: NCI-H226 lung
NCI-H23 lung = tested on: NCI-H23 lung
NCI-H460 lung = tested on: NCI-H460 lung
NCI-H522 lung = tested on: NCI-H522 lung
NCI/ADR-RES ovarian = tested on: NCI/ADR-RES ovarian
OVCAR-3 ovarian = tested on: OVCAR-3 ovarian
OVCAR-4 ovarian = tested on: OVCAR-4 ovarian
OVCAR-5 ovarian = tested on: OVCAR-5 ovarian
OVCAR-8 ovarian = tested on: OVCAR-8 ovarian
PC-3 prostate = tested on: PC-3 prostate
RPMI-8226 leukemia = tested on: RPMI-8226 leukemia
RXF 393 renal = tested on: RXF 393 renal
SF-268 CNS = tested on: SF-268 CNS
SF-295 CNS = tested on: SF-295 CNS
SF-539 CNS = tested on: SF-539 CNS
SK-MEL-2 melanoma = tested on: SK-MEL-2 melanoma
SK-MEL-28 melanoma = tested on: SK-MEL-28 melanoma
SK-MEL-5 melanoma = tested on: SK-MEL-5 melanoma
SN12C renal = tested on: SN12C renal
SNB-19 CNS = tested on: SNB-19 CNS
SNB-75 CNS = tested on: SNB-75 CNS
SR leukemia = tested on: SR leukemia
SW-620 colon = tested on: SW-620 colon
TK-10 renal = tested on: TK-10 renal
U251 CNS = tested on: U251 CNS
UACC-257 melanoma = tested on: UACC-257 melanoma
UACC-62 melanoma = tested on: UACC-62 melanoma
UO-31 renal = tested on: UO-31 renal

## O=c1c2cc(F)ccc2sc2c(N3CCNCC3)nc3ccccc3c12
786-0 renal
  GI50: 1450 nM
  TGI: 2930 nM
A498 renal
  GI50: 1440 nM
  TGI: 2910 nM
A549 NSCLC
  GI50: 1650 nM
  TGI: 3.54 µM
ACHN renal
  GI50: 1560 nM
  TGI: 2890 nM
BT-549 breast
  GI50: 7.76 µM
  TGI: 20.9 µM
CAKI-1 renal
  GI50: 1590 nM
  TGI: 2930 nM
COLO 205 colon
  GI50: 1750 nM
  TGI: 4.03 µM
DU-145 prostate
  GI50: 1690 nM
  TGI: 3.12 µM
EKVX NSCLC
  GI50: 1550 nM
  TGI: 2980 nM
HCC-2998 colon
  GI50: 1650 nM
  TGI: 3.05 µM
HCT-116 colon
  GI50: 1590 nM
  TGI: 3.01 µM
HCT-15 colon
  GI50: 1410 nM
  TGI: 2850 nM
HL-60(TB) leukemia
  GI50: 1900 nM
  TGI: 3.72 µM
HOP-62 NSCLC
  GI50: 1610 nM
  TGI: 3.44 µM
HOP-92 NSCLC
  GI50: 867 nM
  TGI: 2220 nM
HS 578T breast
  GI50: 1530 nM
  TGI: 3.31 µM
HT29 colon
  GI50: 1640 nM
  TGI: 3.35 µM
IGROV1 ovarian
  GI50: 1500 nM
  TGI: 3.02 µM
KM12 colon
  GI50: 1720 nM
  TGI: 3.34 µM
LOX IMVI melanoma
  GI50: 1590 nM
  TGI: 3.02 µM
M14 melanoma
  GI50: 1780 nM
  TGI: 3.27 µM
MALME-3M melanoma
  GI50: 1640 nM
  TGI: 3.22 µM
MCF7 breast
  GI50: 1700 nM
  TGI: 3.27 µM
MDA-MB-231 breast
  GI50: 1390 nM
  TGI: 2780 nM
MDA-MB-435
  GI50: 1650 nM
  TGI: 3.05 µM
MOLT-4 leukemia
  GI50: 1700 nM
  TGI: 3.56 µM
NCI-H226 lung
  GI50: 1820 nM
  TGI: 3.48 µM
NCI-H23 lung
  GI50: 1780 nM
  TGI: 3.27 µM
NCI-H460 lung
  GI50: 1490 nM
  TGI: 2990 nM
NCI-H522 lung
  GI50: 1860 nM
  TGI: 3.72 µM
NCI/ADR-RES ovarian
  GI50: 1690 nM
  TGI: 3.22 µM
OVCAR-3 ovarian
  GI50: 1660 nM
  TGI: 3.09 µM
OVCAR-4 ovarian
  GI50: 1740 nM
  TGI: 3.46 µM
OVCAR-5 ovarian
  GI50: 1670 nM
  TGI: 3.08 µM
OVCAR-8 ovarian
  GI50: 1820 nM
  TGI: 4.08 µM
PC-3 prostate
  GI50: 1610 nM
  TGI: 3.1 µM
RPMI-8226 leukemia
  GI50: 1770 nM
  TGI: 3.77 µM
RXF 393 renal
  GI50: 1290 nM
  TGI: 2650 nM
SF-268 CNS
  GI50: 1550 nM
  TGI: 3.18 µM
SF-295 CNS
  GI50: 1750 nM
  TGI: 3.17 µM
SF-539 CNS
  GI50: 1630 nM
  TGI: 3.05 µM
SK-MEL-2 melanoma
  GI50: 2010 nM
  TGI: 4 µM
SK-MEL-28 melanoma
  GI50: 1750 nM
  TGI: 3.17 µM
SK-MEL-5 melanoma
  GI50: 1760 nM
  TGI: 3.18 µM
SN12C renal
  GI50: 1590 nM
  TGI: 3.04 µM
SNB-19 CNS
  GI50: 1610 nM
  TGI: 3.04 µM
SNB-75 CNS
  GI50: 1430 nM
  TGI: 2800 nM
SR leukemia
  GI50: 1540 nM
  TGI: 4.14 µM
SW-620 colon
  GI50: 1510 nM
  TGI: 3.01 µM
TK-10 renal
  GI50: 1690 nM
  TGI: 3.24 µM
U251 CNS
  GI50: 1570 nM
  TGI: 3.42 µM
UACC-257 melanoma
  GI50: 1990 nM
  TGI: 3.87 µM
UACC-62 melanoma
  GI50: 1690 nM
  TGI: 3.09 µM
UO-31 renal
  GI50: 1370 nM
  TGI: 2710 nM
